Test results reported in US20240327415A1, “Multicomponent Complexes, Including Salts, Crystalline Forms, and Hydrates and Solvates of ENT1 Inhibitors” (iTeos Belgium SA, priority 2023, published 2024).

Columns and labels:
Assay type in all cases: physicochemical
[1] = pH solubility studies in buffers and biorelevant media (Example 16); details: for ML purity / Solub.: 24 h; for solution purity of the extracted mother liquors: after 24 hours slurrying in the media (Form 2: all samples except pH 4.5 Attempt 1); for solubility: 24 hours
Protocol: Example 16—pH Solubility Studies—(1) Crystalline Form 2 Compound 1 di(hydrogen sulfate) trihydrate, (2) Crystalline Form 3 Compound 1 di(hydrogen sulfate), and (3) Crystalline Form 4 Compound 1 mono(hydrogen sulfate): pH solubility studies were carried out on the prepared crystalline Form 2 Compound 1 di(hydrogen sulfate) trihydrate, crystalline Form 3 Compound 1 di(hydrogen sulfate) and crystalline Form 4 Compound 1 mono(hydrogen sulfate) in the following media: (1) HCl/KCl, pH 1.2; (2) Acetate, pH 4.5; (3) Phosphate, pH 6.8; (4) FaSSIF; (5) FeSSIF; and (6) FaSSGF. Slurries of the hydrogen sulfate forms were prepared in the appropriate medium and stirred at 25° C. For the experiments in the buffer media, the pH of the slurry samples was measured and adjusted as required after 1 hour and 23 hours of the slurrying. Additional solid was added where dissolution was observed post-adjustment. The pH of the samples in the biorelevant media was measured at the 23 hour timepoint. No pH adjustment was made for the biorelevant media. After a total of 24 hours of slurrying, the mother liquors were extracted via centrifugation, and the concentrations and solution purity were determined by HPLC. The residual solids were isolated and analyzed by XRPD and are shown in FIG. 77, FIG. 78, and FIG. 79. The assessment was repeated for some of the samples, where required.

[2] = Dynamic Vapor Sorption (DVS); details: for post-DVS sample (XRPD / appearance): DVS at 25° C.
How it was run: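 At 25 °C, samples (about 5–15 mg or 10–20 mg) ramped 40–90% RH in 10% steps, each step held to stable weight (dm/dt 0.004%, 30–500 min), dried to 0% RH, returned to 40% RH; two cycles. Hygroscopicity judged from weight change; in one variant, XRPD of residual solid followed.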

[3] = Variable Temperature X-Ray Powder Diffraction (VT-XRPD)
Protocol: In the examples below, VT-XRPD analysis was carried out on a Philips X'Pert Pro Multipurpose diffractometer equipped with a temperature chamber. The samples were scanned between 4 and 36° 2θ using Cu K radiation (α1 λ=1.54060 Å; α2=1.54443 Å; β=1.39225 Å; α1: α2 ratio=0.5; most, if not all, B radiation is removed from the beam using an X-ray mirror) running in Bragg-Brentano geometry (step size 0.008° 2θ) using 40 kV/40 mA generator settings. Measurements were carried out from ambient temperature to an upper limit of 250° C., with a final measurement taken after cooling.
VT-XRPD analysis was carried out on a Philips X'Pert Pro Multipurpose diffractometer equipped with a temperature chamber. The samples were scanned between 4 and 36° 2θ using Cu K radiation (α1 λ=1.54060 Å; α2=1.54443 Å; β2=1.39225 Å; α1:α2 ratio=0.5; most, if not all, β radiation is removed from the beam using an X-ray mirror) running in Bragg-Brentano geometry (step size 0.008° 2θ) using 40 kV/40 mA generator settings. Measurements were carried out from ambient temperature to an upper limit of 250° C., with a final measurement taken after cooling.

[4] = Karl Fischer coulometric titration (water content)
Protocol: In the examples below, KF titration measured using either an In Motion KF Autosampler or Direct Addition Method. The In Motion KF Autosampler was carried out via the following procedure. 15-20 mg of solid was weighed into a 10 mL glass vial and tightly sealed with a screw cap. Samples were analyzed using a Mettler Toledo C30SX and an InMotion KFOven Autosampler at 130° C. Samples were analyzed in duplicate and an average moisture content reported. See table below for further details.
The Direct Addition Method was carried out via the following procedure. 15-20 mg of solid material was accurately weighed into a vial. The solid was then manually introduced into the titration cell of a Mettler Toledo C30 Compact Titrator. The vial was back-weighed after the addition of the solid and the weight of the added solid entered on the instrument. Titration was initiated once the sample had fully dissolved in the cell. The water content was calculated automatically by the instrument as a percentage and the data printed.

[5] = FaSSGF, 25° C., pH after 24 h 1.98
[6] = FaSSIF, 25° C., pH after 24 h 3.93
[7] = FeSSIF, 25° C., pH after 24 h 4.34
[8] = pH 1.2 (HCl/KCl), 25° C., pH after 24 h 1.57→1.33
[9] = pH 4.5 (Acetate), 25° C., pH after 24 h 4.43
[10] = pH 6.8 (Phosphate), 25° C., pH after 24 h 5.19→6.94
[11] = FaSSGF, 25° C., pH after 24 h 0.87
[12] = FaSSIF, 25° C., pH after 24 h 1.10
[13] = FeSSIF, 25° C., pH after 24 h 1.01, Cloudy
[14] = pH 1.2 (HCl/KCl), attempt 1, 25° C., pH after 24 h 1.13
[15] = pH 4.5 (Acetate), attempt 1, 25° C., pH after 24 h 4.76→4.58
[16] = pH 4.5 (Acetate), attempt 2, 25° C., pH after 24 h 4.88→4.56
[17] = pH 6.8 (Phosphate), attempt 1, 25° C., pH after 24 h 5.57→6.70
[18] = pH 6.8 (Phosphate), attempt 2, 25° C., pH after 24 h 1.57→6.71

## COc1cc(C(=O)O[C@@H]2CCCOc3cc(cc(OC)c3OC)C(=O)NCCCN3CCCN(CC2)CC3)cc(OC)c1OC.O=S(=O)(O)O
[1]; [5]
  ML purity: 99.82 % area
  Solub.: 36.7 mg/mL
[1]; [6]
  ML purity: 99.86 % area
  Solub.: 44.9 mg/mL
[1]; [7]
  ML purity: 99.69 % area
  Solub.: 124.2 mg/mL
[1]
  solution purity of the extracted mother liquors: > 98 % area
[1]; pH 1.2
  pH solubility: pH 1.2: 134 mg/mL
  pH solubility: residual solid: mg/mL, Form 4
[1]; [8]
  ML purity: >99.99 % area
  Solub.: 134.1 mg/mL
[1]; pH 1.2 and FeSSIF media, 25° C.
  solubility: > 100 mg/mL
[1]; pH 4.5
  pH solubility: pH 4.5: 47 mg/mL
  pH solubility: residual solid: mg/mL, Form 4
[1]; [9]
  ML purity: 99.86 % area
  Solub.: 46.9 mg/mL
[1]; pH 6.8
  pH solubility: pH 6.8: 62 mg/mL
  pH solubility: residual solid: mg/mL, Gum
[1]; [10]
  ML purity: 98.30 % area
  Solub.: 62.0 mg/mL
[1]; the other media assessed, 25° C.
  solubility: 30 to 80 mg/mL
[2]
  post-DVS sample (XRPD / appearance): conversion to crystalline Form 8 Compound 1 mono(hydrogen sulfate)
[2]; after DVS at 40% RH
  DVS: Conversion to (solid form): Form 8 after
[2]; at 20-30% RH (desorption)
  DVS loss: 8.0% loss at
[2]; at 40-50% RH (2nd sorption)
  DVS uptake: 8.1% uptake at
[2]; between 20-30% RH
  moisture loss (DVS): ca. 8.0%
[2]; between 40-40% RH during the sorption cycles
  moisture uptake (DVS): ca. 4.9%
[2]; between 40-50% RH
  moisture uptake (DVS): 8.1%
[2]; between 50-80% RH
  moisture uptake (DVS): ca. 2.2%
[3]
  VT-XRPD: Conv. To Form 8 at: at 40-70 °C
  VT-XRPD: Conversion to amorph. At: amorph. At ≥90 °C
  temperature above which the sample turned amorphous: greater than 90 °C
  temperature range of conversion to crystalline Form 8 Compound 1 mono(hydrogen sulfate): 40-70 °C
[4]
  KF moisture content: 14.87% moisture

## COc1cc(C(=O)O[C@@H]2CCCOc3cc(cc(OC)c3OC)C(=O)NCCCN3CCCN(CC2)CC3)cc(OC)c1OC.O=S(=O)(O)O.O=S(=O)(O)O [crystalline Form 3 Compound 1 di(hydrogen sulfate)]
[1]; [11]
  ML purity: 99.51 % area
  Solub.: 72.0 mg/mL
[1]; [12]
  ML purity: 99.76 % area
  Solub.: 77.1 mg/mL
[1]; [13]
  ML purity: 99.90 % area
  Solub.: ≥208.3 mg/mL
[1]
  solution purity of the extracted mother liquors: > 95 % area
[1]; all the media assessed, except the pH 4.5 media, 25° C.
  solubility: > 50 mg/mL
[1]; pH 1.2
  pH solubility: pH 1.2: 76 mg/mL
  pH solubility: residual solid: mg/mL, Form 2
[1]; [14]
  ML purity: 99.56 % area
  Solub.: 75.7 mg/mL
[1]; pH 4.5
  pH solubility: pH 4.5: 54 mg/mL
  pH solubility: residual solid: mg/mL, Form 4
[1]; [15]
  ML purity: 99.59 % area
  Solub.: 54.2 mg/mL
[1]; [16]
  ML purity: 95.53 % area
  Solub.: 20.0 mg/mL
[1]; pH 4.5 media, Attempt 2, 25° C.
  solubility: 20 mg/mL
[1]; pH 6.8
  pH solubility: pH 6.8: 150 mg/mL
  pH solubility: residual solid: mg/mL, Gum
[1]; [17]
  ML purity: 99.87 % area
  Solub.: 122.5 mg/mL
[1]; [18]
  ML purity: 99.16 % area
  Solub.: 152.8 mg/mL
[2]
  DVS: solid form conversion: Conversion to P2
  post-DVS sample (XRPD / appearance): conversion to crystalline Form 2 Compound 1 di(hydrogen sulfate) trihydrate
[2]; at 80% RH
  DVS uptake: 7.3% uptake at
[2]; between 0-10% RH, 25° C.
  moisture uptake (DVS): about 5.2%
[2]; between 10-80% RH, 25° C.
  moisture uptake (DVS): ca. 2.1%
[2]; between 40-80% RH, first sorption cycle, 25° C.
  moisture uptake (DVS): ca. 7.1%
[3]
  VT-XRPD: Conv. To Form 9 from: from 50-160 °C
  VT-XRPD: Melt from: Melt from 160 °C
  VT-XRPD: input form retained at: at 25-50 °C
  temperature range in which the form is retained (VT-XRPD): 25-40 °C
[3]; Heating, 50° C., hold 30 min
  VT-XRPD Results: 3 (trace of 9)
[4]
  KF moisture content: 1.89% moisture
